# Experimental data reported in ChEMBL document CHEMBL4184137, “Lysine Deacetylase Inhibitors in Parasites: Past, Present, and Future Perspectives” (J Med Chem, 2017).
# pIC50: −log10 of the molar value.
# Columns and labels:
# [1] = test system: Trypanosoma brucei brucei; assay: Antitrypanosomal activity against Trypanosoma brucei brucei measured after 22 hrs by fluorescence-based Alamar blue viability assay; format: functional, organism-based
# [2] = test system: Plasmodium falciparum; assay: Antimalarial activity against Plasmodium falciparum infected in human erythrocytes preincubated for 48 hrs followed by [3H]-hypoxanthine addition measured after 24 hrs by scintillation counting assay; format: functional, organism-based
# [3] = test system: NFF; assay: Cytotoxicity against human NFF cells after 72 hrs by SRB assay; format: cell-based
# [4] = biological target: T1, Histone deacetylase (Plasmodium falciparum) (UniProt Q9XYC7); assay: Inhibition of recombinant HDAC1 in recombinant Plasmodium falciparum at 1 uM using Ac-RGK(Ac)-AMC fluorogenic peptide as substrate preincubated for 1 hr followed by substrate addition measured after 10 min by fluorescence assay
# T1 sequence (whole entry): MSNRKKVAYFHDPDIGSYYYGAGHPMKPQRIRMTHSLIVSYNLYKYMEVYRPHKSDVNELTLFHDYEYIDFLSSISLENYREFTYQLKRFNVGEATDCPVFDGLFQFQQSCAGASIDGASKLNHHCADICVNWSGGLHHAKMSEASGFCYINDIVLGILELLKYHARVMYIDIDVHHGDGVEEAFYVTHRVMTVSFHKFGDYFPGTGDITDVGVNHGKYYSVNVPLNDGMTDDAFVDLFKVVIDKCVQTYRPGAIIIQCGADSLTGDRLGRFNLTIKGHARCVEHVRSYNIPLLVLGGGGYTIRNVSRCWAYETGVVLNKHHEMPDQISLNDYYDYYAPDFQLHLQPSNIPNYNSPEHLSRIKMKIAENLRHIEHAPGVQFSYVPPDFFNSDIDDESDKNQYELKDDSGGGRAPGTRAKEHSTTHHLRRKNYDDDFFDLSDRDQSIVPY
# [5] = test system: HEK293; assay: Cytotoxicity against HEK293 cells after 48 hrs by resazurin assay; format: cell-based; conditions: Homo sapiens, HEK293, 48 h
# [6] = test system: Leishmania infantum; assay: Antileishmanial activity against amastigote stage of Leishmania infantum MHOM/MA671TMAP263 expressing luciferase after 72 hrs by luciferase assay; format: functional, organism-based; conditions: MHOM/MA671TMAP263, 72 h
# [7] = biological target: T2, NAD-dependent protein deacetylase sirtuin-1 (Homo sapiens, UniProt Q96EB6); assay: Inhibition of human SIRT1 in presence of NAD+ by fluorimetric method
# T2 sequence (Q96EB6 whole entry): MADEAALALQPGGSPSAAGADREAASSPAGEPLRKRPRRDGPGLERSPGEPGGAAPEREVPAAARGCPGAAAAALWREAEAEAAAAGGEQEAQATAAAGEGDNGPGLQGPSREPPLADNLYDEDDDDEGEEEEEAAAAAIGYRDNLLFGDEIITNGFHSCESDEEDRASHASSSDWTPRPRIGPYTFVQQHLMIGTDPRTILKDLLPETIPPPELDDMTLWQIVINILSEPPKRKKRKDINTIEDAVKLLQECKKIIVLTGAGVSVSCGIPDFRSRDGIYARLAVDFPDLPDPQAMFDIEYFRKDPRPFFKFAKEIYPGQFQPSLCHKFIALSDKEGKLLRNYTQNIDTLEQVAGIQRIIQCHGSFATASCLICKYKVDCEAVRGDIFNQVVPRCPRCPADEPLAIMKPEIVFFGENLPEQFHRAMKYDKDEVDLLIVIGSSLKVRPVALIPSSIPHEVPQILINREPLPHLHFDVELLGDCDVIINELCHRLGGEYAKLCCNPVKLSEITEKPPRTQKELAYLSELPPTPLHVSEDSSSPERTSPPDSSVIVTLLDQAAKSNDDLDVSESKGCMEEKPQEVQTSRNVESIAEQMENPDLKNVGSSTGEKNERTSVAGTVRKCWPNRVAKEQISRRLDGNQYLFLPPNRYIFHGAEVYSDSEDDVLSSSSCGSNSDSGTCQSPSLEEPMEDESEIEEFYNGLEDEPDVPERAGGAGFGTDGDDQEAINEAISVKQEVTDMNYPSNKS
# [8] = Selectivity index, ratio of IC50 for N-terminal His6-tagged recombinant Leishmania infantum SIR2RP1 expressed in Escherichia coli to IC50 for human SIRT1
# [9] = test system: Plasmodium falciparum; assay: Antimalarial activity against Plasmodium falciparum using Malstat reagent by parasite lactate dehydrogenase assay; format: functional, organism-based
# [10] = Selectivity index, ratio of IC50 for African green monkey Vero cells to IC50 for Plasmodium falciparum W2; format: toxicity; conditions: read-out: Ratio IC50
# [11] = biological target: T3, Histone deacetylase (Plasmodium falciparum, UniProt Q9XYC7); assay: Inhibition of recombinant Plasmodium falciparum HDAC1 using HDAC substrate-3 after 30 mins by fluorescence assay
# T3 sequence (Q9XYC7 whole entry): T1 sequence (whole entry)
# [12] = Selectivity index, ratio of IC50 for African green monkey Vero cells to IC50 for Plasmodium falciparum D6; format: toxicity; conditions: read-out: Ratio IC50
# [13] = biological target: Histone deacetylase 1 (Homo sapiens, UniProt Q13547); assay: Inhibition of human HDAC1 using Z(Ac)Lys-AMC as substrate by fluorimetric assay
# Histone deacetylase 1, sequence (Q13547 whole entry): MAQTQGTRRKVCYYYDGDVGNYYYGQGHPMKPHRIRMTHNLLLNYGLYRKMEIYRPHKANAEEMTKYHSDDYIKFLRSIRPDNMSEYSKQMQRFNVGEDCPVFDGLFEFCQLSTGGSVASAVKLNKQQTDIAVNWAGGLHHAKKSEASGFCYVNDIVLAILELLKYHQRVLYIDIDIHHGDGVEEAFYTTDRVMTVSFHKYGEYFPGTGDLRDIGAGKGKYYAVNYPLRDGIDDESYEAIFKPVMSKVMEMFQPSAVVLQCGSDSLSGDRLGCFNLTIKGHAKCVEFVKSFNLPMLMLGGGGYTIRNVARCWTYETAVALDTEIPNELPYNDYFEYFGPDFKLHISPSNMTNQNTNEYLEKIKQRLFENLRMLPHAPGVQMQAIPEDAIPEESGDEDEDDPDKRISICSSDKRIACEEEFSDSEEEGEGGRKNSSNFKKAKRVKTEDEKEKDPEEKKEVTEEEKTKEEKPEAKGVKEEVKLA
# [14] = biological target: T4, Protein deacetylase HDAC6 (Homo sapiens, UniProt Q9UBN7); assay: Inhibition of human HDAC6 using Z(Ac)Lys-AMC as substrate by fluorimetric assay
# T4 sequence (Q9UBN7 whole entry): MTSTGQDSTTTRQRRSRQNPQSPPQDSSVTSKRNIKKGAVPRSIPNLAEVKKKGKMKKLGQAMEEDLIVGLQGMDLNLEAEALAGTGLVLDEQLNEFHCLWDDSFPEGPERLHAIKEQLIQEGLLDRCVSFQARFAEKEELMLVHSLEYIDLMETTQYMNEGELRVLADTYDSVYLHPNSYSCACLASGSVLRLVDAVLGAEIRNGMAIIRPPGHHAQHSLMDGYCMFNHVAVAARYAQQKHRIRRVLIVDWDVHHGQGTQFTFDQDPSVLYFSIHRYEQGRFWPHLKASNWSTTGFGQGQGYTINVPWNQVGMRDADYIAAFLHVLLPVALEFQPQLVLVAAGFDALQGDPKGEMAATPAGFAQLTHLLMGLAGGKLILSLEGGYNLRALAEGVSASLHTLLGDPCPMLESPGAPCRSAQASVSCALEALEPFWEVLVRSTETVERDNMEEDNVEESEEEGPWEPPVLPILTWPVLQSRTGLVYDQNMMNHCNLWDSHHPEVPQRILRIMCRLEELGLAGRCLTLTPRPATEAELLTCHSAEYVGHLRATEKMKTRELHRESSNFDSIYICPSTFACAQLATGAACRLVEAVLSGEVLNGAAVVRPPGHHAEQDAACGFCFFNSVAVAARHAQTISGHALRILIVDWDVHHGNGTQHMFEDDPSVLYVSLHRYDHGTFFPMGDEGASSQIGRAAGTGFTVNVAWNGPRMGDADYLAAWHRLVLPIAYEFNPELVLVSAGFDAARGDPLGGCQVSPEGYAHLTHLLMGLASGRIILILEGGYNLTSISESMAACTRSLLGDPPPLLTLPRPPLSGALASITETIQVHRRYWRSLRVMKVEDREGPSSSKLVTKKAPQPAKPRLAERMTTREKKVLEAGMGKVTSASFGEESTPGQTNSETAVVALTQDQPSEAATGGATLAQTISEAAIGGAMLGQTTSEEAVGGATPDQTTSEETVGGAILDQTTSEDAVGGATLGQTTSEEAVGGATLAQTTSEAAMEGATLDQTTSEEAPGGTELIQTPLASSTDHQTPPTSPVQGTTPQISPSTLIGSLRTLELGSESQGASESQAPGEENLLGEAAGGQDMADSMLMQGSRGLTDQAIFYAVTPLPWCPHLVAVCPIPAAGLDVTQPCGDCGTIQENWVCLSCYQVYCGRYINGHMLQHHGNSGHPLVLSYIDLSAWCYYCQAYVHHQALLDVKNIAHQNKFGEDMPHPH
# [15] = biological target: T5, Histone deacetylase 8 (Schistosoma mansoni, UniProt A5H660); assay: Inhibition of Schistosoma mansoni HDAC8 using Fluor de Lys(R) as substrate by fluorimetric assay
# T5 sequence (A5H660 whole entry): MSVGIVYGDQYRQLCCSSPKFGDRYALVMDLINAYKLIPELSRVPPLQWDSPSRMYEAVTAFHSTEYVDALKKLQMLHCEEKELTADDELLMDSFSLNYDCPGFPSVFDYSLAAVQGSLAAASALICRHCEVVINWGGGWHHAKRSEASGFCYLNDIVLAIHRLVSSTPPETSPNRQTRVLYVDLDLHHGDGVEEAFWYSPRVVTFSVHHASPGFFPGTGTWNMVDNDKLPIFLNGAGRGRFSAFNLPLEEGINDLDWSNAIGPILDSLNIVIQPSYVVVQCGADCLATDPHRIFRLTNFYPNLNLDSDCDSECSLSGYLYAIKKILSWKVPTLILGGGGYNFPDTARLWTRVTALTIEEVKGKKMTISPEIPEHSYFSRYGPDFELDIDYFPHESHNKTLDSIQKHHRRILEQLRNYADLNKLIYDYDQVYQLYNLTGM
# [16] = test system: Schistosoma mansoni; assay: Antiparasitic activity against Schistosoma mansoni assessed as reduction in cell viability at 50 uM after 3 days relative to control; format: functional
# [17] = biological target: T6, Histone deacetylase 8 (Homo sapiens, UniProt Q9BY41); assay: Inhibition of human HDAC8 using Fluor de Lys(R) as substrate by fluorimetric assay
# T6 sequence (Q9BY41 whole entry): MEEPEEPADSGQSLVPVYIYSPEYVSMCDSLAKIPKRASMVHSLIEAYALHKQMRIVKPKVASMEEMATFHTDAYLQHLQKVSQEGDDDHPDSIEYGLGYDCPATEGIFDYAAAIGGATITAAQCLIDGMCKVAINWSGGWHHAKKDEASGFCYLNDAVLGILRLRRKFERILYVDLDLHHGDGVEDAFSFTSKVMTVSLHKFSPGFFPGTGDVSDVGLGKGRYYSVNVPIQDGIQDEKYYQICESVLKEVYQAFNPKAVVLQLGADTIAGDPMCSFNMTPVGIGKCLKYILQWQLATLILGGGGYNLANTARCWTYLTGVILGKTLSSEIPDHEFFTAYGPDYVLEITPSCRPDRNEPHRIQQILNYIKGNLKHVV
structure (smiles),measurement,setting,value
Cc1[nH]c2ccccc2c1CCNCc1ccc(/C=C/C(=O)NO)cc1 [PANOBINOSTAT],pIC50,[1],5.77
same,pIC50,[2],7.52 to 8.00
same,pIC50,[3],6.74 to 7.15
same,inhibition,[4],100%
same,pIC50,[5],6.74 to 7.15
O=C(/C=C/c1cccc(S(=O)(=O)Nc2ccccc2)c1)NO [BELINOSTAT],pIC50,[1],5.59
same,pIC50,[2],6.89 to 7.22
same,pIC50,[3],5.62 to 5.85
same,inhibition,[4],78.5%
same,pIC50,[5],5.62 to 5.85
O=C1c2cccc3cccc(c23)C(=O)N1CCCNCCCCCCCCCNCCCN1C(=O)c2cccc3cccc(c23)C1=O,pIC50,[6],5.22
same,pIC50,[7],4.01
same,Ratio IC50,[8],17
CC[C@H]1OC(=O)[C@H](C)[C@@H](O[C@H]2C[C@@](C)(OC)[C@@H](O)[C@H](C)O2)[C@H](C)[C@@H](O[C@@H]2O[C@H](C)C[C@H](N(C)Cc3ccc(-c4cn(CCCCCCC(=O)NO)nn4)cc3)[C@H]2O)[C@](C)(O)C[C@@H](C)CN(C)[C@H](C)[C@@H](O)[C@]1(C)O,pIC50,[9],6.65 to 7.03
same,selectivity ratio,[10],> 47.6
same,pIC50,[11],7.54
same,selectivity ratio,[12],> 20.7
O=C(NO)c1sc2ccccc2c1Cl,pIC50,[13],4.71
same,pIC50,[14],4.43
same,pIC50,[15],5.37
same,Activity,[16],100%
same,pIC50,[17],5.51
